Measured values: patent US12336981B2, “Compounds and compositions for the inhibition of NAMPT” (Valo Health, Inc., priority 2010, dated 2025)
Where two headings read alike, the source gives them in different places.

Experiments:
NAMPT = biological target: T1, NAMPT (Homo sapiens, UniProt P43490); assay: Biochemical inhibition assay: NAMPT enzymatic reaction, NMN quantified by mass spectrometry; settings: read-out: Biochem IC50
T1 construct: His tag; host or cells: E. coli
Method in brief: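 Inhibition of E. coli-expressed His-tagged human NAMPT, measured as NMN formation by mass spectrometry after a 30 min room-temperature reaction containing 1 μM NAM, 100 μM PRPP and 2.5 mM ATP.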

A2780 cells = assay: In-vitro cell proliferation assay (SRB), A2780 cells; assay type: cell-based; settings: Homo sapiens, A2780, 72 h, A2780 cells, 72 hours, read-out: A2780 IC50
Method in brief: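 SRB read-out: 6% TCA fix 1 h at 4° C., stain, Tris solubilize, A570. Media-only background subtracted; % inhibition from two compound concentrations.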

T1 sequence (P43490 whole entry): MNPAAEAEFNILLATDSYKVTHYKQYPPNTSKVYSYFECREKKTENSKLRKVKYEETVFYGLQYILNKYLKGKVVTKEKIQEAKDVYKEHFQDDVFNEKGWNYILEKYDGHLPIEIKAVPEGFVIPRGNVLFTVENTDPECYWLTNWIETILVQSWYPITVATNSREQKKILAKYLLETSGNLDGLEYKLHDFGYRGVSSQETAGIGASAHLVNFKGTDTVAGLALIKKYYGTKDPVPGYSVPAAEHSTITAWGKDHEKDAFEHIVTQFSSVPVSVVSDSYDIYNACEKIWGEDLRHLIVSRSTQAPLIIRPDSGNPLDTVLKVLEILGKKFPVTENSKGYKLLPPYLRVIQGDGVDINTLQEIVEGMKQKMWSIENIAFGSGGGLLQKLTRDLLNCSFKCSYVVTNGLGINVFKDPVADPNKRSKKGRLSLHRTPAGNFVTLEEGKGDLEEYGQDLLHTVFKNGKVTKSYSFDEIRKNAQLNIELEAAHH

`Cn1ncc2cc(S(=O)(=O)c3ccc(CNC(=O)c4cnc5[nH]ncc5c4)cc3)ccc21` [N-{[4-(1-methyl-1H-indazole-5-sulfonyl)phenyl]methyl}-1H-pyrazolo[3,4-b]pyridine-5-carboxamide] gave an IC50 (NAMPT; NAMPT enzymatic assay) of 5.4 nM and an IC50 (A2780 cells; SRB) of 2.73 nM.

For `O=C(NCc1ccc(S(=O)(=O)c2cccc(C(F)(F)F)n2)cc1)c1cnc2[nH]ncc2c1` [N-({4-[6-(trifluoromethyl)pyridine-2-sulfonyl]phenyl}methyl)-1H-pyrazolo[3,4-b]pyridine-5-carboxamide], the IC50 (NAMPT; NAMPT enzymatic assay) was 24.2 nM and the IC50 (A2780 cells; SRB) was 11.1 nM.

With `O=C(NCc1ccc(S(=O)(=O)c2cccc(C(F)(F)F)c2)cc1)c1ccc2ncsc2c1` the IC50 (NAMPT; NAMPT enzymatic assay) was 6 nM and the IC50 (A2780 cells; SRB) was 548 nM.

`Cc1ccc(S(=O)(=O)c2ccc(CNC(=O)c3cc4ccncc4o3)cc2)c(F)c1` gave an IC50 (NAMPT; NAMPT enzymatic reaction) of 12.3 nM and an IC50 (A2780 cells; SRB) of 25.3 nM.

Work on `O=C(NCc1ccc2ncsc2c1)c1ccc(S(=O)(=O)c2cccc(Cl)c2)cc1` [N-(1,3-benzothiazol-6-ylmethyl)-4-[(3-chlorobenzene)sulfonyl]benzamide] yielded an IC50 (NAMPT; NAMPT enzymatic assay) of 10 nM and an IC50 (A2780 cells; SRB) of over 10000 nM.

With `Cc1ccc(Cl)cc1S(=O)(=O)c1ccc(CNC(=O)c2cc3ccncc3o2)cc1` the IC50 (NAMPT; NAMPT enzymatic reaction) was 5.8 nM and the IC50 (A2780 cells; SRB) was 7.8 nM.

`O=C(NCc1ccc(S(=O)(=O)c2ccc(C(F)(F)F)cc2F)cc1)c1cc2cnccc2[nH]1` [N-[(4-{[2-fluoro-4-(trifluoromethyl)benzene]sulfonyl}phenyl)methyl]-1H-pyrrolo[3,2-c]pyridine-2-carboxamide] gave an IC50 (NAMPT; NAMPT enzymatic assay) of 80.2 nM and an IC50 (A2780 cells; SRB) of 28.1 nM.

`O=C(NCc1ccc(S(=O)(=O)c2ccc(F)c(F)c2)cc1)c1cc2ccncc2s1` [N-({4-[(3,4-difluorobenzene)sulfonyl]phenyl}methyl)thieno[2,3-c]pyridine-2-carboxamide] showed an IC50 (NAMPT; NAMPT enzymatic reaction) of 9 nM and an IC50 (A2780 cells; SRB assay) of 8.1 nM.

With `CCOc1ccccc1S(=O)(=O)c1ccc(CNC(=O)c2cc3ccncc3o2)cc1` [N-({4-[(2-ethoxybenzene)sulfonyl]phenyl}methyl)furo[2,3-c]pyridine-2-carboxamide] the IC50 (NAMPT; NAMPT enzymatic reaction) was 65.9 nM and the IC50 (A2780 cells; SRB) was 6 nM.

For `O=C(NCc1ccc(S(=O)(=O)c2ccc(-c3ccccc3)cc2)cc1)c1cc2cc(O)ccc2[nH]1`, the IC50 (NAMPT; NAMPT enzymatic reaction) was 100 to 1000 nM and the IC50 (A2780 cells; SRB) was 1000 to 10000 nM.

In the case of `COc1cccc(S(=O)(=O)c2ccc(CNC(=O)c3ccc4nccn4c3)cc2)n1` [N-{[4-(6-methoxypyridine-2-sulfonyl)phenyl]methyl}imidazo[1,2-a]pyridine-6-carboxamide], the IC50 (NAMPT; NAMPT enzymatic assay) is reported as 5.2 nM and the IC50 (A2780 cells; SRB) is reported as 1.3 nM.

Work on `COc1ccc(S(=O)(=O)c2ccc(CNC(=O)c3ccc4nccn4c3)cc2)cc1C` [N-({4-[(4-methoxy-3-methylbenzene)sulfonyl]phenyl}methyl)imidazo[1,2-a]pyridine-6-carboxamide] yielded an IC50 (NAMPT; NAMPT enzymatic reaction) of 14.1 nM and an IC50 (A2780 cells; SRB) of 5.32 nM.

With `O=C(NCc1ccc(S(=O)(=O)c2cc(F)cc(OCC(F)(F)F)c2)cc1)c1cnc2[nH]ncc2c1` [N-[(4-{[3-fluoro-5-(2,2,2-trifluoroethoxy)benzene]sulfonyl}phenyl)methyl]-1H-pyrazolo[3,4-b]pyridine-5-carboxamide] the IC50 (NAMPT; NAMPT enzymatic assay) was 8 nM and the IC50 (A2780 cells; SRB) was 4.82 nM.

With `O=C(NCc1ccc(S(=O)(=O)c2cccc(OC(F)F)c2)cc1)c1cnc2nccn2c1` the IC50 (NAMPT; NAMPT enzymatic assay) was 2.1 nM and the IC50 (A2780 cells; SRB) was 5 nM.

`O=C(NCc1ccc(S(=O)(=O)c2cccc(N3CCOCC3)c2)cc1)c1cc2cc(O)ccc2[nH]1` showed an IC50 (NAMPT; NAMPT enzymatic reaction) of 100 to 1000 nM and an IC50 (A2780 cells; SRB) of 1000 to 10000 nM.

`O=C(NCc1ccc(S(=O)(=O)c2cnn(-c3cccc(Cl)c3)c2)cc1)c1cc2cnccc2[nH]1` [N-({4-[1-(3-chlorophenyl)-1H-pyrazole-4-sulfonyl]phenyl}methyl)-1H-pyrrolo[3,2-c]pyridine-2-carboxamide] was tested, and the IC50 (NAMPT; NAMPT enzymatic assay) was 16.9 nM and the IC50 (A2780 cells; SRB) was 13.1 nM.

Compound `O=C(NCc1ccc(S(=O)(=O)c2cccc(OC(F)(F)F)c2)cc1)c1cc2ccncc2o1` has an IC50 (NAMPT; NAMPT enzymatic assay) of 3.4 nM and an IC50 (A2780 cells; SRB) of 6.7 nM.

With `O=C(NCc1ccc(S(=O)(=O)c2ccc(N3CCOCC3)cc2)cc1)c1cnc2[nH]ncc2c1` [N-[(4-{[4-(morpholin-4-yl)benzene]sulfonyl}phenyl)methyl]-1H-pyrazolo[3,4-b]pyridine-5-carboxamide] the IC50 (NAMPT; NAMPT enzymatic assay) was 4.45 nM and the IC50 (A2780 cells; SRB) was 2.47 nM.

With `O=C(NCc1ccc(S(=O)(=O)c2cc(F)cc(Cl)c2)cc1)c1cc2cnccc2[nH]1` the IC50 (NAMPT; NAMPT enzymatic reaction) was 9.9 nM and the IC50 (A2780 cells; SRB) was 1.4 nM.

`CCS(=O)(=O)c1cccc(S(=O)(=O)c2ccc(CNC(=O)c3ccc4nccn4c3)cc2)c1` was tested, and the IC50 (NAMPT; NAMPT enzymatic assay) was 13.5 nM and the IC50 (A2780 cells; SRB) was 6 nM.

`COc1cc(F)ccc1S(=O)(=O)c1ccc(CNC(=O)c2cc3cnccc3[nH]2)cc1` [N-({4-[(4-fluoro-2-methoxybenzene)sulfonyl]phenyl}methyl)-1H-pyrrolo[3,2-c]pyridine-2-carboxamide] gave an IC50 (NAMPT; NAMPT enzymatic reaction) of 31 nM and an IC50 (A2780 cells; SRB assay) of 7 nM.

`O=C(NC1CCCC1)c1cccc(S(=O)(=O)c2ccc(CNC(=O)c3cc4ccncc4s3)cc2)c1` gave an IC50 (NAMPT; NAMPT enzymatic assay) of 4.8 nM and an IC50 (A2780 cells; SRB) of 13.8 nM.

Compound `CC(C)NC(=O)c1cc(S(=O)(=O)c2ccc(CNC(=O)c3cnc4[nH]ncc4c3)cc2)ccc1F` [N-{[4-({4-fluoro-3-[(propan-2-yl)carbamoyl]benzene}sulfonyl)phenyl]methyl}-1H-pyrazolo[3,4-b]pyridine-5-carboxamide] has an IC50 (NAMPT; NAMPT enzymatic assay) of 85.2 nM and an IC50 (A2780 cells; SRB) of 63.1 nM.

For `Cc1nc(C)c(S(=O)(=O)c2ccc(CNC(=O)c3ccc4nccn4c3)cc2)s1` [N-{[4-(dimethyl-1,3-thiazole-5-sulfonyl)phenyl]methyl}imidazo[1,2-a]pyridine-6-carboxamide], the IC50 (NAMPT; NAMPT enzymatic assay) was 9 nM and the IC50 (A2780 cells; SRB) was 3.7 nM.

Compound `CN(C)c1ccc(S(=O)(=O)c2ccc(CNC(=O)c3cnc4nccn4c3)cc2)cn1` [N-({4-[6-(dimethylamino)pyridine-3-sulfonyl]phenyl}methyl)imidazo[1,2-a]pyrimidine-6-carboxamide] has an IC50 (NAMPT; NAMPT enzymatic assay) of 2.7 nM and an IC50 (A2780 cells; SRB) of 5.9 nM.

In the case of `N#CC1(c2ccc(S(=O)(=O)c3ccc(CNC(=O)c4ccc5nccn5c4)cc3)cc2)CCCC1`, the IC50 (NAMPT; NAMPT enzymatic assay) is reported as 10.7 nM and the IC50 (A2780 cells; SRB) is reported as 3 nM.

Work on `Cc1cccc(C)c1S(=O)(=O)c1ccc(CNC(=O)c2cc3ccncc3o2)cc1` yielded an IC50 (NAMPT; NAMPT enzymatic reaction) of 32.3 nM and an IC50 (A2780 cells; SRB) of 100 to 1000 nM.

`Cc1nc(S(=O)(=O)c2ccc(CNC(=O)c3cnc4nccn4c3)cc2)cs1` [N-{[4-(2-methyl-1,3-thiazole-4-sulfonyl)phenyl]methyl}imidazo[1,2-a]pyrimidine-6-carboxamide] showed an IC50 (NAMPT; NAMPT enzymatic assay) of 28.6 nM and an IC50 (A2780 cells; SRB) of 1000 to 10000 nM.

With `COc1ccc(S(=O)(=O)c2ccc(CNC(=O)c3cnc4nccn4c3)cc2)cc1Cl` the IC50 (NAMPT; NAMPT enzymatic reaction) was 1.8 nM and the IC50 (A2780 cells; SRB) was 1.8 nM.

For `N#Cc1ccc(S(=O)(=O)c2ccc(CNC(=O)c3cc4cnccc4[nH]3)cc2)cc1` [N-({4-[(4-cyanobenzene)sulfonyl]phenyl}methyl)-1H-pyrrolo[3,2-c]pyridine-2-carboxamide], the IC50 (NAMPT; NAMPT enzymatic reaction) was 11.1 nM and the IC50 (A2780 cells; SRB) was 25.1 nM.

Compound `O=C(NCc1ccc(S(=O)(=O)c2ccccc2)cc1)c1ccc2nncn2c1` [N-{[4-(benzenesulfonyl)phenyl]methyl}-[1,2,4]triazolo[4,3-a]pyridine-6-carboxamide] has an IC50 (NAMPT; NAMPT enzymatic reaction) of 301 nM and an IC50 (A2780 cells; SRB assay) of over 10000 nM.

Compound `Cc1cccc(S(=O)(=O)c2ccc(CNC(=O)c3cc4ccncc4o3)cc2)c1` [N-({4-[(3-methylbenzene)sulfonyl]phenyl}methyl)furo[2,3-c]pyridine-2-carboxamide] has an IC50 (NAMPT; NAMPT enzymatic reaction) of 2.3 nM and an IC50 (A2780 cells; SRB) of 5.3 nM.

`O=C(NCc1ccc(S(=O)(=O)c2cc(Cl)cc(Cl)c2)cc1)c1ccc2nccn2c1` [N-({4-[(3,5-dichlorobenzene)sulfonyl]phenyl}methyl)imidazo[1,2-a]pyridine-6-carboxamide] gave an IC50 (NAMPT; NAMPT enzymatic reaction) of 5.49 nM and an IC50 (A2780 cells; SRB) of 1.28 nM.

With `CCCCOc1cccc(F)c1S(=O)(=O)c1ccc(CNC(=O)c2cc3cnccc3[nH]2)cc1` the IC50 (NAMPT; NAMPT enzymatic reaction) was 8.8 nM and the IC50 (A2780 cells; SRB) was 5.6 nM.
